One series addresses T1, Aβ42 fibrils (Homo sapiens, UniProt P05067).
T1 construct: commercial Aβ42 monomer powder (from GL biochem); purchased GL biochem
Nature of the series: Fluorescence saturation binding assay with Aβ42 fibrils. As to conditions: read-out: Kd, Fibrils. The procedure: Preparation of the Aβ42 Fibrils and Aβ42 Oligomers. Aβ42 fibrils: 1 mg of commercial Aβ42 monomer powder (from GL biochem) was dissolved in 1 mL 1,1,1,3,3,3-hexafluoro-2-propanol (HFIP) at room temperature and incubated for 1 h. The resulting solution was divided equally into two Eppendorf tubes. The solution in each Eppendorf tube containing 0.5 mg Aβ42 monomer was then evaporated overnight and dried by vacuum centrifuge to generate monomeric films. […] Aβ42 fibrils solution was prepared by dissolving the 0.5 mg monomeric films in 1.1 mL PBS buffer (with final DMSO concentration less than 1%) and stirring at 37° C. for 3 days.
(§1) In Vitro Saturation Binding Studies with Aβ42 Fibrils and Aβ42 Oligomers. To a solution of increasing concentrations of compounds, a fixed concentration of the generated aggregated Aβ42 fibrils or Aβ42 oligomers solutions (5 to 15 NM) was added to yield a total volume of 100 μL. Nonspecific binding was determined […]. The mixture was incubated for 15 min at room temperature. All fluorescence data were obtained on a SpectraMax M2e plate reader (Molecular Devices). The fluorescent intensity was measured at the corresponding emission wavelength of each compound, and the Kd binding curves were generated by GraphPad Prism 8.0 with one site-specific binding model. Equation: Y=Bmax*X/(Kd+X).

Series [1] is described as follows: Log D by octanol-PBS partition. The format is physicochemical. To be noted: DCM compounds. As to the method: Log D measurements. The Log D value was measured following a published procedure using slight modifications. In general, compounds in 0.5 mL octanol was subjected to partition with 0.5 mL octanol-saturated PBS. The whole mixture was stirred vigorously for 5 min, and centrifuged at 2,000 rpm for 5 min. The top octanol layer was separated for later fluorescence measurement. The remaining PBS layer was partitioned with 0.5 mL PBS-saturated octanol, and the second top octanol layer was then separated after vigorous stirring and centrifuging at 2,000 rpm for another 5 min. The two octanol layers' fluorescence spectra were recorded. The log D value was calculated by the fluorescence intensity ratio at the compounds' emission wavelength for the above two octanol extractions.

Another series has as its target T2, Aβ42 oligomers (Homo sapiens, UniProt P05067).
T2 construct: commercial Aβ42 monomer powder (from GL biochem); purchased GL biochem
Nature of the series: Fluorescence saturation binding assay with Aβ42 oligomers. As to conditions: for Kd: read-out: Kd, Oligomers. As to the method:
Aβ42 oligomers: The 0.5 mg monomeric films were dissolved in 1.1 mL PBS buffer (with final DMSO concentration less than 1%) and incubated at 4° C. overnight. The resulting solution was then centrifuged at 3000 rpm for 15 mins to remove the insoluble aggregates. The clear supernatant was then used for the following experiments. Aβ42 oligomers concentration was checked by measuring the absorbance of the supernatant at 280 nm.
as §1

For series [2], the system named is interactions between Aβ fibrils and SH-SY5Y cell membranes. The series is described as follows: Confocal imaging of Aβ fibrils binding to SH-SY5Y cell membranes. The series is classed as cell-based, human. To be noted: 5 μM fibrils, 5 μM compound, 24 h. As to the method:
(§2) Cell Imaging Procedures. For oligomers and fibrils imaging: Human neuroblastoma SH-SY5Y cells were grown with DMEM/10% FBS at 37° C. in a humidified atmosphere with 5% CO2, and an 8-well μ-slides (ibidi) chambered coverslip was seeded the SH-SY5Y cells. At about 80% confluency (24 h after seeding), the cells were treated with DMSO as control group, 5 μM oligomers/fibrils and 5 μM (oligomers/fibrils+ compounds), respectively. After 24 h incubation, the media was removed from each well. The cells were then fixed with 200 μL 3.7% formaldehyde for 15 min and blocked with 200 μL 3% BSA for 10 min. 3% BSA was then removed from the cells and replaced with 100 μL CF594-HJ 3.4 (1 μg/mL in 3% BSA). The cells were incubated with CF594-HJ 3.4 for 2 h at room temperature and were washed with PBS (5×100 μL). Before imaging, the cells in each well were stained with 100 μL NucBlue reagent (Thermo Fisher Scientific) for 15 min and mounted with non-fluorescent mounting media. 5-10 images of each well were taken, and the images were processed and analyzed by Fiji and Zeiss Zen lite software. Three individual replicates were conducted and subjected to the statistical analysis.

Series [3] concerns interactions between Aβ oligomers and SH-SY5Y cell membranes. The series is described as follows: Confocal imaging of Aβ oligomers binding to SH-SY5Y cell membranes. The format is cell-based, human. To be noted: 5 μM Aβ oligomers, 5 μM compound, 24 h. As to the method:
as §2

For series [4], the system named is Cu^2+-Aβ42-induced toxicity in Neuro2A cells. Nature of the series: Cu2+-Aβ42-induced toxicity, Alamar blue cell viability. The series is classed as cell-based, mouse. To be noted: [Aβ42]=40 μM, [Cu^2+]=40 μM, compound 10 μM (ZY-12-OMe 5 μM). The procedure:
FIG. 6. Cell viability results upon incubation of Neuro2A cells with monomeric Aβ42 in the presence or absence of metal ions and amphiphilic compounds. Concentrations: [Aβ42]=40 μM, [Cu^2+]=40 μM, [ZY-12-MT]=[ZY-15-OMe]=[ZY-15-MT]=[ZY-17-MT]=[ZY-5-OMe]=[ZY-5-MT]=[ZY-5-DT]=10 μM, [ZY-12-OMe]=5 μM. The error bars represent the standard deviation from five independent experiments, and the statistical analysis was evaluated according to one-way ANOVA (*p<0.05).
For the Cu^2+-Ap-induced toxicity studies, cells treated were monomeric Aβ42, Cu^2+, monomeric Aβ42+Cu^2+, and monomeric Aβ42+Cu^2++ compounds, respectively. After 40 h incubation, Alamar Blue solution (10 μL) was added, and the cells were incubated for another 90 min at 37° C. The fluorescence intensity of each well was measured at 590 nm (excitation wavelength=560 nm).
A general note: Resazurin is reduced to fluorescent resorufin, in cell work by metabolically active cells.

Series [5] relates to interactions between Cu-Aβ species and SH-SY5Y cell membranes. Nature of the series: Confocal imaging of Cu-Aβ species binding to SH-SY5Y cell membranes. The series is classed as cell-based, human. To be noted: 5 μM Aβ monomers + Cu^2+ + compound, 48 h. As to the method:
For monomers +Cu^2+ imaging: SH-5Y5Y were seeded as mentioned above, and cells were treated with DMSO as control group, 5 μM monomers, 5 μM (monomers +CuCl2) and 5 μM (monomers +CuCl2+compounds) respectively. After 48 h incubation, cells were treated and imaged the same way as mentioned above.

The target in a further series is Aβ oligomers. As to conditions: cited from earlier work.
The target of series [6] is T3, native Aβ species in 5×FAD mice brain sections (Homo sapiens, UniProt P05067).
T3 construct: from tissue; host or cells: brain sections of 5×FAD transgenic mice
The series is described as follows: Fluorescence staining of 5×FAD mice brain sections, colocalization. Details: species or system mouse. As to conditions: 5×FAD brain sections, compared with ThS. The procedure:
Histological Staining of 5×FAD Mice Brain Sections. 5×FAD transgenic mice brain sections were blocked with bovine serum albumin (2% BSA in PBS, pH 7.4, 10 min). Then the mice brain sections were transferred to a PBS solution of the compound and incubated for 1 h. […] Then, the brain sections were treated with BSA again (5 min) followed by washing with PBS (3×2 min), DI water (3×2 min). Finally, the mice brain sections were mounted with non-fluorescent mounting media, and the images were obtained by using EVOS FL Auto 2. ImageJ Fiji program was used for colocalization analysis and determination of the Pearson's correlation coefficient. The primary antibodies were labeled with dye CF594 via Mix-n-Stain™ CF™ 594 Antibody Labeling Kit (Sigma Aldrich).

What is called Kd is the free concentration of one partner at which half of the binding sites on the other are occupied at equilibrium, for simple one-to-one binding. What is called logD is the decadic logarithm of the distribution of all forms, ionised or not, between an organic phase and buffer at a given pH. High values mean higher lipophilicity, low ones lower lipophilicity.

Molecules are shown by their SMILES. Where two headings read alike, the source gives them in different places.

T2 sequence (P05067 672-713 limits assumed): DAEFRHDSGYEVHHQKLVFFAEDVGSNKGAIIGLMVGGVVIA
T1 sequence (P05067 672-713 limits assumed): as above
T3 sequence (P05067 672-713 limits assumed): as above

For the compound `CN1CCN(C)CCN(Cc2cc(/C=C/C3=CC(=C(C#N)C#N)c4ccccc4O3)cc(CN3CCN(C)CCN(C)CC3)c2O)CC1` [DCM-OH-1-DT, (E)-2-(2-(3,5-bis((4,7-dimethyl-1,4,7-triazonan-1-yl)methyl)-4-hydroxystyryl)-4H-chromen-4-ylidene)malononitrile], the dissociation constant Kd on Aβ42 fibrils (Table 3, DCM compounds) amounted to 1.85 ± 0.19 µM; on Aβ42 oligomers (Table 3, DCM compounds) it was 2.88 ± 0.54 µM. This compound registered a logD in series [1] of 1.51 ± 0.018.

On to `CN1CCN(C)CCN(Cc2cc(/C=C/C3=CC(=C(C#N)C#N)c4ccccc4O3)ccc2O)CC1` [DCM-OH-1-MT, (E)-2-(2-(3-((4,7-dimethyl-1,4,7-triazonan-1-yl)methyl)-4-hydroxystyryl)-4H-chromen-4-ylidene)malononitrile], for which the dissociation constant Kd at Aβ42 fibrils (Table 3, DCM compounds) was 0.58 ± 0.07 µM; at Aβ42 oligomers (Table 3, DCM compounds), 0.67 ± 0.19 µM. Further, in series [1], the logD was 1.65 ± 0.06.

Take `CN1CCN(C)CCN(Cc2cc(/C=C/c3ccc(-c4ccc(C=O)cc4)s3)ccc2O)CC1` [ZY-15-MT, (E)-4-(5-(3-((4,7-dimethyl-1,4,7-triazonan-1-yl)methyl)-4-hydroxystyryl)thiophen-2-yl)benzaldehyde]: the “Aβ fibrils binding to cell membranes” value in [2] is reported as “not able to significantly decrease the numbers of the Aβ fibrils binding to cell membranes”. Moreover, the “Aβ oligomers bound to cell membranes” value in series [3] is “fewer numbers of Aβ oligomers bound to the cell membranes”. Further, the equilibrium dissociation constant (Kd) at Aβ42 fibrils (Table 1, amphiphilic compounds) came to 0.53 ± 0.03 µM; at Aβ42 oligomers (Table 1, amphiphilic compounds), 2.03 ± 0.11 µM. In addition, the “effect on cell viability under Cu^2+-Aβ42 toxicity” value (“effect on cell viability” below) in series [4] is given as “significantly increase cell viability”. Also, the “Cu-Aβ species interactions with cell membranes” value in [5] is given as “significantly decreased interactions with cell membranes”.

Regarding `COc1cc(/C=C/c2ccc(-c3ccc(N(C)C)cc3)s2)cc(CN2CCN(C)CCN(C)CC2)c1O` [ZY-5-OMe, (E)-2-((4,7-dimethyl-1,4,7-triazonan-1-yl)methyl)-4-(2-(5-(4-(dimethylamino)phenyl)thiophen-2-yl)vinyl)-6-methoxyphenol], the dissociation constant (Kd) at Aβ42 fibrils (Table 1, amphiphilic compounds) is 0.68 ± 0.1 µM; on Aβ42 oligomers (Table 1, amphiphilic compounds), 1.04 ± 0.15 µM. Moreover, the “effect on cell viability” value in series [4] is “significantly increase cell viability”.

With `N#CC(C#N)=C1C=C(/C=C/c2ccc(O)cc2)Oc2ccccc21` [DCM-OH-1], in series [1], the pH-dependent lipophilicity (logD) amounted to 1 ± 0.04.

Consider `CCN(CC)c1ccc(/C=C/C2=[O+][B-](F)(F)OC(/C=C/c3ccc(N(CC)CC)nc3)=C2CCCOc2c(C)cccc2C)cn1` [CRANAD-102], for which the equilibrium dissociation constant (Kd) on Aβ oligomers (reported values) is 0.0075 µM.

Regarding `CN1CCN(C)CCN(Cc2cc(-c3ccc(/C=C/c4ccc(N(C)C)cc4)s3)ccc2O)CC1` [ZY-12-MT, (E)-2-((4,7-dimethyl-1,4,7-triazonan-1-yl)methyl)-4-(5-(4-(dimethylamino)styryl)thiophen-2-yl)phenol], the Kd at Aβ42 fibrils (Table 1, amphiphilic compounds) stood at 4.19 ± 0.87 µM; at Aβ42 oligomers (Table 1, amphiphilic compounds) it was 6.27 ± 1.01 µM. In addition, the “effect on cell viability” value in series [4] is recorded as “significantly increase cell viability”.

For the compound `CCOc1cccc(C=Cc2cc(C)c3n2[B-](F)(F)[N+]2=C(CCC(=O)OCC(Cl)(Cl)Cl)C=CC2=C3)c1O` [BD-Oligo], the Kd at Aβ oligomers (reported oligomer-selective probes) was 0.4 µM.

Consider `CN1CCN(C)CCN(Cc2cc(/C=C/C=C/C3=CC(=C(C#N)C#N)c4ccccc4O3)ccc2O)CC1` [DCM-OH-2-MT, 2-(2-((1E,3E)-4-(3-((4,7-dimethyl-1,4,7-triazonan-1-yl)methyl)-4-hydroxyphenyl)buta-1,3-dien-1-yl)-4H-chromen-4-ylidene)malononitrile], for which the Kd at Aβ42 fibrils (Table 3, DCM compounds) came to 0.78 ± 0.11 µM; on Aβ42 oligomers (Table 3, DCM compounds), 0.23 ± 0.03 µM. Besides, the “region of Aβ aggregates bound” value in series [6] is “bind to the peripheral region of the Aβ aggregates”. Further, the pH-dependent lipophilicity (logD) in [1] is 1.13 ± 0.16. Further, at Aβ42 oligomers (DCM compounds), the “binding affinity towards Aβ42 oligomers over fibrils” value was “three times higher binding affinity towards Aβ42 oligomers over fibrils”.

As for `COc1cc(/C=C/c2ccc(-c3ccc(C=O)cc3)s2)cc(CN2CCN(C)CCN(C)CC2)c1O` [ZY-15-OMe, (E)-4-(5-(3-((4,7-dimethyl-1,4,7-triazonan-1-yl)methyl)-4-hydroxy-5-methoxystyryl)thiophen-2-yl)benzaldehyde], the “Aβ fibrils binding to cell membranes” value in [2] is “not able to significantly decrease the numbers of the Aβ fibrils binding to cell membranes”. Moreover, the “Aβ oligomers bound to cell membranes” value in series [3] is listed as “fewer numbers of Aβ oligomers bound to the cell membranes”. In addition, the dissociation constant (Kd) at Aβ42 fibrils (Table 1, amphiphilic compounds) came out at 1.24 ± 0.18 µM; at Aβ42 oligomers (Table 1, amphiphilic compounds) it was 0.47 ± 0.13 µM. Moreover, in [4], the “effect on cell viability” value is “significantly increase cell viability”. In series [5], the “Cu-Aβ species interactions with cell membranes” value is “significantly decreased interactions with cell membranes”. For the same compound, the “binding affinity to oligomers compared with fibrils (Kd comparison)” value on Aβ42 oligomers (amphiphilic ZY compounds) was “higher binding affinity to oligomers over fibrils”.

Values taken from patent US20260027243A1, “AMPHIPHILIC COMPOUNDS FOR ATTENUATING NEUROTOXICITY OF AMYLOID-beta OLIGOMERS AND DIAGNOSTIC METHODS” (THE BOARD OF TRUSTEES OF THE UNIVERSITY OF ILLINOIS, priority 2022, published 2026).
